Results taken from patent US20230030989A1, “JUST SUNSCREEN” (Pouch Pac Innovations, LLC, priority 2019, published 2023).

Conditions: in vivo
Excerpt: Subjects reported to the testing facility, at which time inclusion/exclusion criteria was reviewed and Informed Consent obtained. Upon verification of eligibility to enroll, the test articles were applied to the upper arm of each subject. The test articles were applied to the Webril□ disks according to a dose regime (see Section 5.1). The skin was marked with dots of crystal violet applied on either side of the top disk and below the bottom disk of the strip to enable exact location of subsequent patches. Each subject was asked to avoid the dye marks during washing and to keep the patches dry.
Subjects received patches containing the test article and two standard controls which were applied as 0.2 ml/0.2 g samples in one of five randomly assigned orders on the upper arm. The sample order for each subject was documented and maintained throughout the study in the form of a color-coded identification card. Subjects were instructed to keep the patches dry and in place for 23 hours then to remove and discard them and to return to the test center one hour later. Patches were applied on Days 1, 2, 3 and 4. Patches were applied to the same site on each day unless a reaction stronger than a mild erythema (i.e. greater than a score of 1.5 (Appendix 5)) was present in which case the patch strip was cut and the relevant patch (es) not reapplied. Assessment of patch sites was immediately before application of the next patch on Days 2, 3, 4 and on Day 5. After removal of the patches the test sites were wiped with a damp tissue to remove any remaining product.

- patch site score Day 2, MEAN: 0.08
- patch site score Day 3, MEAN: 0.37
- patch site score Day 4, MEAN: 0.63
- patch site score Day 5, MEAN: 0.82
SMILES: CCCCCCCCCCCCOS(=O)(=O)[O-].[Na+] [0.3% W/V SLS]
